Experiment [1] has as its target Rho-associated protein kinase 1 (Homo sapiens) (UniProt Q13464). In words: Inhibition of human ROCK1 assessed as residual activity at 1 uM using 3xChocktide-PKC(19-31) as substrate in presence of 33P-ATP by ProQinase assay relative to control.
Experiment [2] deals with Dual specificity tyrosine-phosphorylation-regulated kinase 3 (Homo sapiens) (UniProt O43781). In words: Inhibition of human DYRK3 assessed as residual activity at 1 uM using RBER-IRStide as substrate in presence of 33P-ATP by ProQinase assay relative to control.
The target in experiment [3] is Rho-associated protein kinase 2 (Homo sapiens) (UniProt O75116). In words: Inhibition of ROCK2 (unknown origin) assessed as remaining activity at 1 uM by Kinome scan method relative to control.
Rho-associated protein kinase 2 (Homo sapiens), sequence (O75116 whole entry, looked up): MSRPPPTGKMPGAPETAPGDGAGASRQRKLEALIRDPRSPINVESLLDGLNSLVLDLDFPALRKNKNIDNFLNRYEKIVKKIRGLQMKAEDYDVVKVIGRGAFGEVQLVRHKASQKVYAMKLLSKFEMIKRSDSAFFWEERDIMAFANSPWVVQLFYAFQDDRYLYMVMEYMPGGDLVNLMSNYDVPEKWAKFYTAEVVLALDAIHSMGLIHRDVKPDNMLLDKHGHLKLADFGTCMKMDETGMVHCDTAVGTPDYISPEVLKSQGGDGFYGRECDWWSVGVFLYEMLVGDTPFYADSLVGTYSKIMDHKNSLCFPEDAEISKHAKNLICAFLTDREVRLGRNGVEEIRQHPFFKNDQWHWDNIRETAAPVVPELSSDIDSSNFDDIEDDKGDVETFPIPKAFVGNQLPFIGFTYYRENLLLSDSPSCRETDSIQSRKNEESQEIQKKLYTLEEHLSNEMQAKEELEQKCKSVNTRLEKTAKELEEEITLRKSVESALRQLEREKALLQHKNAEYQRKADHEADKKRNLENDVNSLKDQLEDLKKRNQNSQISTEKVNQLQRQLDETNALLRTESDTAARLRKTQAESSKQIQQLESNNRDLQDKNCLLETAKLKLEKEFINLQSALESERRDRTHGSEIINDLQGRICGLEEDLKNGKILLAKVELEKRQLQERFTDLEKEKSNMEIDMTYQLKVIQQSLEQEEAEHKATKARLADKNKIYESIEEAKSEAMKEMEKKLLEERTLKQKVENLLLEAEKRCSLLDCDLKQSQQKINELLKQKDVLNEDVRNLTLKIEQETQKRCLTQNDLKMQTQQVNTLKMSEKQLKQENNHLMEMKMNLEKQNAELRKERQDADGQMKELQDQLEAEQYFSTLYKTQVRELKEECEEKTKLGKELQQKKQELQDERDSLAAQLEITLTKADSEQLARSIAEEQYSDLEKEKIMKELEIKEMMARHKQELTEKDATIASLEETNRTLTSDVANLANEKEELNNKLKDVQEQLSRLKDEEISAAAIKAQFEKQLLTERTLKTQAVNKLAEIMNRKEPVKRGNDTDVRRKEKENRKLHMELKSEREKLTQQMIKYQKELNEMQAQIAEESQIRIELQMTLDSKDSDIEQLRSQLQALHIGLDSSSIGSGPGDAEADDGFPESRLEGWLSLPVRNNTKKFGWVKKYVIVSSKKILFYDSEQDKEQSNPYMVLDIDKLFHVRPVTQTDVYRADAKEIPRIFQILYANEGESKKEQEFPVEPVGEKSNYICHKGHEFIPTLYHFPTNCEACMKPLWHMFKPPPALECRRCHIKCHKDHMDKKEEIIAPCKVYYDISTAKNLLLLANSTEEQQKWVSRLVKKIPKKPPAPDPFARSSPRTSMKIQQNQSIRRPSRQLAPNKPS
Experiment [4] has as its target Ribosomal protein S6 kinase alpha-3 (Homo sapiens) (UniProt P51812). In words: Inhibition of human RPS6KA3 assessed as residual activity at 1 uM using bio-4xCHKT as substrate in presence of 33P-ATP by ProQinase assay relative to control.
Experiment [5] deals with Ribosomal protein S6 kinase alpha-5 (Homo sapiens) (UniProt O75582). In words: Inhibition of N-terminal kinase domain RPS6KA5 (unknown origin) assessed as remaining activity at 1 uM by Kinome scan method relative to control.
Ribosomal protein S6 kinase alpha-5 (Homo sapiens), sequence (O75582 whole entry, looked up, the tested form may be a part): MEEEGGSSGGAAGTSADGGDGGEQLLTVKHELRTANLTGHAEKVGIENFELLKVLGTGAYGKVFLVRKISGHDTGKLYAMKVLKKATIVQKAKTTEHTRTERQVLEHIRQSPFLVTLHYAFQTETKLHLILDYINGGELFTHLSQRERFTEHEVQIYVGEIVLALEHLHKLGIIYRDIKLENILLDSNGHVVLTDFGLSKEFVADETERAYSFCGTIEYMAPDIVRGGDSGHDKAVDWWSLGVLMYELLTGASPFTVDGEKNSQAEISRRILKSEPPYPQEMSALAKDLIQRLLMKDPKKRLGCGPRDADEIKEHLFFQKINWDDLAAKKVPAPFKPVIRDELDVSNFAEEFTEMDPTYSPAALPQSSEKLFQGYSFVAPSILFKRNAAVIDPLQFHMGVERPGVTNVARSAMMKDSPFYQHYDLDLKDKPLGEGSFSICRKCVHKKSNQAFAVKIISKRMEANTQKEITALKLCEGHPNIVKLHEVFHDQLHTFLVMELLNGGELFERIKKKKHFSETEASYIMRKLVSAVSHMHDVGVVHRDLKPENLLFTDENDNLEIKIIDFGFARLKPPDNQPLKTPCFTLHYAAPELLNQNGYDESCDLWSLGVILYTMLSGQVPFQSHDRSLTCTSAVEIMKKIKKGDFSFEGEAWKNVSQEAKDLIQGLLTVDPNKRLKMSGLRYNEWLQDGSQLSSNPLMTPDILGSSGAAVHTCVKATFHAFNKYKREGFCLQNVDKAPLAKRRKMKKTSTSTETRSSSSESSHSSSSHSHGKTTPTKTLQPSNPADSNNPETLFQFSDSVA
For experiment [6], the target named is Receptor-interacting serine/threonine-protein kinase 2 (Homo sapiens) (UniProt O43353). In words: Inhibition of RIPK2 (unknown origin) assessed as remaining activity at 1 uM by Kinome scan method relative to control.
Receptor-interacting serine/threonine-protein kinase 2 (Homo sapiens), sequence (O43353 whole entry): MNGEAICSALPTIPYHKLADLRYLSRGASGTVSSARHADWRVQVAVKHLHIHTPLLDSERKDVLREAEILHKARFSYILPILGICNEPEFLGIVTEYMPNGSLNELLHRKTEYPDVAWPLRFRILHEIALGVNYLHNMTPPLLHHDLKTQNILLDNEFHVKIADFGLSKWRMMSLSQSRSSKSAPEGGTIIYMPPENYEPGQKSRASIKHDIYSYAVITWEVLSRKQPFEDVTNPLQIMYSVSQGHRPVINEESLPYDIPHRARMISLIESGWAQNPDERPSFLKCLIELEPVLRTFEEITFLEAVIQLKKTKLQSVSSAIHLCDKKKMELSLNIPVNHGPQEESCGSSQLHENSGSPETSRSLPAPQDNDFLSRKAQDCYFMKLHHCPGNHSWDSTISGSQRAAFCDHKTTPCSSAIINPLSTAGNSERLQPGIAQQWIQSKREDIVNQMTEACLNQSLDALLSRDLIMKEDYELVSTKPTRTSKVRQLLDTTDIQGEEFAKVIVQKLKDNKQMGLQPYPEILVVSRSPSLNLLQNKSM
Experiment [7] concerns the target Serine/threonine-protein kinase TBK1 (Homo sapiens) (UniProt Q9UHD2). Briefly: Inhibition of TBK1 (unknown origin) assessed as remaining activity at 1 uM by Kinome scan method relative to control.
Experiment [8] addresses Mitogen-activated protein kinase 15 (Homo sapiens) (UniProt Q8TD08). Briefly: Inhibition of ERK8 (unknown origin) assessed as remaining activity at 1 uM by Kinome scan method relative to control.
Experiment [9] addresses Rho-associated protein kinase 2 (Homo sapiens) (UniProt O75116). In words: Inhibition of human ROCK2 assessed as residual activity at 1 uM using RB-S6P as substrate in presence of 33P-ATP by ProQinase assay relative to control.
Experiment [10] has as its target Serine/threonine-protein kinase TNNI3K (Homo sapiens) (UniProt Q59H18). In words: Inhibition of TNNI3K (unknown origin) assessed as remaining activity at 1 uM by Kinome scan method relative to control.
Experiment [11] has as its target Ribosomal protein S6 kinase alpha-2 (Homo sapiens) (UniProt Q15349). In words: Inhibition of human RPS6KA2 assessed as residual activity at 1 uM using bio-4xCHKT as substrate in presence of 33P-ATP by ProQinase assay relative to control.
The target of experiment [12] is Cyclin-dependent kinase-like 3 (Homo sapiens) (UniProt Q8IVW4). In words: Inhibition of CDKL3 (unknown origin) assessed as remaining activity at 1 uM by Kinome scan method relative to control.
Experiment [13] has as its target T1, Serine/threonine-protein kinase NLK (Homo sapiens) (UniProt Q9UBE8).
T1 sequence (whole entry): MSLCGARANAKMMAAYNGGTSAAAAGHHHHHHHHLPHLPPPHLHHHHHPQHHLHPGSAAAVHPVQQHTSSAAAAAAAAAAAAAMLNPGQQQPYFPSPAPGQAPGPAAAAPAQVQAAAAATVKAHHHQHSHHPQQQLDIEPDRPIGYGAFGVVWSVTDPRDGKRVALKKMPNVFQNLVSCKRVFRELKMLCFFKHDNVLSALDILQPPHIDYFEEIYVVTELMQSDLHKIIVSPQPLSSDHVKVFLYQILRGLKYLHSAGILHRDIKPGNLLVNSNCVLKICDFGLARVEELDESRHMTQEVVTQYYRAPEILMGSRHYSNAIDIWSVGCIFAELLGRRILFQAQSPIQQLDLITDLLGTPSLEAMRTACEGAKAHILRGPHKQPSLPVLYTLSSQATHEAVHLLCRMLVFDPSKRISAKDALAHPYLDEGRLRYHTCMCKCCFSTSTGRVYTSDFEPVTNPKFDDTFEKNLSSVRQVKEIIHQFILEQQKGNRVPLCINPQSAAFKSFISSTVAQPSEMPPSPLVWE
In words: Inhibition of human NLK assessed as residual activity at 1 uM using RBER-GSK3 as substrate in presence of 33P-ATP by ProQinase assay relative to control.

In experiment [14] the target is Tyrosine-protein kinase BTK (Homo sapiens) (UniProt Q06187). Briefly: Inhibition of human BTK assessed as residual activity at 1 uM using PolyEY as substrate in presence of 33P-ATP by ProQinase assay relative to control.
In experiment [15] the target is Rhodopsin kinase GRK7 (Homo sapiens) (UniProt Q8WTQ7). Briefly: Inhibition of human GRK7 assessed as residual activity at 1 uM using casein as substrate in presence of 33P-ATP by ProQinase assay relative to control.
The test system of experiment [16] is Epidermal growth factor receptor (Homo sapiens), P00533 [UNDEFINED MUTATION]. In words: Inhibition of EGFR E746-A750del mutant (unknown origin) assessed as remaining activity at 1 uM by Kinome scan method relative to control.
In experiment [17] the target is Discoidin domain-containing receptor 2 (Homo sapiens) (UniProt Q16832). Briefly: Inhibition of DDR2 (unknown origin) assessed as remaining activity at 1 uM by Kinome scan method relative to control.
Experiment [18] addresses Casein kinase I isoform gamma-3 (Homo sapiens) (UniProt Q9Y6M4). In words: Inhibition of CSNK1G3 (unknown origin) assessed as remaining activity at 1 uM by Kinome scan method relative to control.
Experiment [19] concerns the target Glycogen synthase kinase-3 alpha (Homo sapiens) (UniProt P49840). Briefly: Inhibition of human GSK3alpha assessed as residual activity at 1 uM using SUPT5 754-837 as substrate in presence of 33P-ATP by ProQinase assay relative to control.
Experiment [20] addresses Mitogen-activated protein kinase 14 (Homo sapiens) (UniProt Q16539). Briefly: Inhibition of human p38alpha assessed as residual activity at 1 uM using ATF2 as substrate in presence of 33P-ATP by ProQinase assay relative to control.
Experiment [21] has as its target Tyrosine-protein kinase Fyn (Homo sapiens) (UniProt P06241). Briefly: Inhibition of FYN (unknown origin) assessed as remaining activity at 1 uM by Kinome scan method relative to control.
Experiment [22] deals with Dual serine/threonine and tyrosine protein kinase (Homo sapiens) (UniProt Q6XUX3). Briefly: Inhibition of human RIPK5 assessed as residual activity at 1 uM using RBER-CHKtide as substrate in presence of 33P-ATP by ProQinase assay relative to control.
Experiment [23] addresses Dual specificity protein kinase CLK2 (Homo sapiens) (UniProt P49760). In words: Inhibition of human CLK2 assessed as residual activity at 1 uM using RBER-GSK3 as substrate in presence of 33P-ATP by ProQinase assay relative to control.
For experiment [24], the target named is Tyrosine-protein kinase JAK1 (Homo sapiens) (UniProt P23458). In words: Inhibition of human JAK1 assessed as residual activity at 1 uM using RBER-IRStide as substrate in presence of 33P-ATP by ProQinase assay relative to control.

Ribosomal protein S6 kinase alpha-2 (Homo sapiens), sequence (Q15349 whole entry): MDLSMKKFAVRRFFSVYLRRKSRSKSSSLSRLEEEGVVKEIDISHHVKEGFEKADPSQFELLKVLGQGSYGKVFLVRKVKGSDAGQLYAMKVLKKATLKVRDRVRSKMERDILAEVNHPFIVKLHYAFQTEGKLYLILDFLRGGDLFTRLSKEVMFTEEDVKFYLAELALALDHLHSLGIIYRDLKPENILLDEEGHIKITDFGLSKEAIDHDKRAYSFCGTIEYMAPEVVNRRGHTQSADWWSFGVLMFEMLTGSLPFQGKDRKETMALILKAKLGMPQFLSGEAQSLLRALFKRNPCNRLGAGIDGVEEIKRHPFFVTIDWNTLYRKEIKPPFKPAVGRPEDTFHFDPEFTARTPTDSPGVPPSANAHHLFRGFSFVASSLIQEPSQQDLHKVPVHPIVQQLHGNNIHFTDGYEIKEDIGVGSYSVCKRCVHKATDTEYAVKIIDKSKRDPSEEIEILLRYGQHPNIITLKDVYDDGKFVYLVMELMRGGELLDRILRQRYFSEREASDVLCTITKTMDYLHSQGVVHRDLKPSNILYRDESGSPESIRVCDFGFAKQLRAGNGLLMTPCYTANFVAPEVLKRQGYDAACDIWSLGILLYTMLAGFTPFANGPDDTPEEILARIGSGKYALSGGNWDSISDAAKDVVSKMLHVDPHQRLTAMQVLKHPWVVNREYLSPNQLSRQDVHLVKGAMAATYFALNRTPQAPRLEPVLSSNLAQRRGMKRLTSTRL
Rho-associated protein kinase 1 (Homo sapiens), sequence (Q13464 2-1354 limits assumed): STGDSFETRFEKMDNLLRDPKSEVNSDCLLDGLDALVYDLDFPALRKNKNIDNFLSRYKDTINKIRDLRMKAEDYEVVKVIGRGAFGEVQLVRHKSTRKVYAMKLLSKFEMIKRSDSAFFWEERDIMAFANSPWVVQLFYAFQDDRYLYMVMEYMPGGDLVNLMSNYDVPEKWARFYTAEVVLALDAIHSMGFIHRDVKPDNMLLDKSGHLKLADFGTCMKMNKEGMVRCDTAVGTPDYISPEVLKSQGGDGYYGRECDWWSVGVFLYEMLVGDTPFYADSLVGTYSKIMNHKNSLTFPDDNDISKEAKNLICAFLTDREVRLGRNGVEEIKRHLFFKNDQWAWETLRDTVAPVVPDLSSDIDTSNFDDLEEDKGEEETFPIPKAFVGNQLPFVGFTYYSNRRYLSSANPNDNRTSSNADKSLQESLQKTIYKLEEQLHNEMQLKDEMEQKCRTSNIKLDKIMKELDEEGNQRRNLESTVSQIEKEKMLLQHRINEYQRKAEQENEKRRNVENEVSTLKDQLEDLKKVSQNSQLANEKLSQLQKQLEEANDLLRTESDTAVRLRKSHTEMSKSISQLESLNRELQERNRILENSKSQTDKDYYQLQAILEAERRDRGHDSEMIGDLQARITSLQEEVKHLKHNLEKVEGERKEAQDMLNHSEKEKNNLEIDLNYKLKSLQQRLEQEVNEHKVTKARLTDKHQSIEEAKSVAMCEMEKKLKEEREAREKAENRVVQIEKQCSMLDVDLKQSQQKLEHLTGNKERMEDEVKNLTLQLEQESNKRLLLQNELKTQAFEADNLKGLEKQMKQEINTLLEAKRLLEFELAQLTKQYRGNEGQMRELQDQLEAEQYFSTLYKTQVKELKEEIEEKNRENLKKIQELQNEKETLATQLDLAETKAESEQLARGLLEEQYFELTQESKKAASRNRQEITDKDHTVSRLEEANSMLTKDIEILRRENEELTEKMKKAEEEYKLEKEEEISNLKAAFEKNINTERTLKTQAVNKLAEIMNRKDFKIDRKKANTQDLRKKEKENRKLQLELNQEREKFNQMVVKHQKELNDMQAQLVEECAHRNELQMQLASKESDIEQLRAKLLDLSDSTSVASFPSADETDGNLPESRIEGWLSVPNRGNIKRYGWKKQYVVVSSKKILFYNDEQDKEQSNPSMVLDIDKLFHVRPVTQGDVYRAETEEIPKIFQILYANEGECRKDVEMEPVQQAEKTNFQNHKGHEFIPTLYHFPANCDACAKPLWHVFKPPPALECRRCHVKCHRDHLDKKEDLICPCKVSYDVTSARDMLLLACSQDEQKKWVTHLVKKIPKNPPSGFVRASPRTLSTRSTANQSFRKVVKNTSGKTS

For the compound `O=C1c2ccc(Nc3ccc(F)cc3F)cc2CCc2ccc(OC[C@H](O)CO)cc21` [Skepinone-L], the Activity came to 97% in experiment [1]; 98% in experiment [2]; 100% in experiment [3]; 89% in [4]; 95% in experiment [5]; 87% in [6]. For the same compound, the Activity in experiment [7] is 100%; in [8], 99%; in experiment [9] it was 90%; in [10] it was 90%; in experiment [11], 90%; in experiment [12], 78%. In addition, the Activity in experiment [13] amounted to 87%; in experiment [14] it was 100%; in experiment [15], 107%; in experiment [16], 72%; in experiment [17], 100%; in [18], 100%. Besides, the Activity in [19] worked out at 93%; in experiment [20] it was 0%; in experiment [21] it was 98%; in experiment [22] it was 95%; in [23], 89%; in experiment [24] it was 93%.

These data come from ChEMBL document CHEMBL5696441 (Nat Chem Biol, 2011).
